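1) Cells in 96-well plates. 2) Compound, 48 h, 5 concentrations. 3) Linear interpolation between surrounding doses. 4) Unreached endpoint = highest concentration. Abbreviation: GI50, concentration required for 50% inhibition of growth.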 Calls of active or inactive are those of the source. No stated cut-off is given here; in the data, active = GI50 up to about 1.1 µM and inactive = higher.
Assays:
Test in all cases: inhibition of tumour cell growth, NCI panel, 48 h
[1] = test system: 786-0
[2] = test system: A498
[3] = test system: A549
[4] = test system: ACHN
[5] = test system: BT-549
[6] = test system: CAKI-1
[7] = test system: CCRF-CEM
[8] = test system: COLO 205
[9] = test system: DU-145
[10] = test system: EKVX
[11] = test system: HCC 2998
[12] = test system: HCT-116
[13] = test system: HCT-15
[14] = test system: HL-60
[15] = test system: HOP-62
[16] = test system: HOP-92
[17] = test system: HT-29
[18] = test system: Hs-578T
[19] = test system: IGROV-1
[20] = test system: K562
[21] = test system: KM12
[22] = test system: LOX IMVI
[23] = test system: M14
[24] = test system: MCF7
[25] = test system: MDA-MB-231
[26] = test system: MDA-MB-435
[27] = test system: MOLT-4
[28] = test system: Malme-3M
[29] = test system: NCI-H226
[30] = test system: NCI-H23
[31] = test system: NCI-H460
[32] = test system: NCI-H522
[33] = test system: NCI/ADR-RES
[34] = test system: OVCAR-3
[35] = test system: OVCAR-4
[36] = test system: OVCAR-5
[37] = test system: OVCAR-8
[38] = test system: PC-3
[39] = test system: RPMI-8226
[40] = test system: RXF 393
[41] = test system: SF-268
[42] = test system: SF-295
[43] = test system: SF-539
[44] = test system: SK-MEL-28
[45] = test system: SK-MEL-2
[46] = test system: SK-MEL-5
[47] = test system: SK-OV-3
[48] = test system: SN12C
[49] = test system: SNB-19
[50] = test system: SNB-75
[51] = test system: SW-620
[52] = test system: T47D
[53] = test system: TK-10
[54] = test system: U-251
[55] = test system: UACC-257
[56] = test system: UACC-62
[57] = test system: UO-31

Which results are given for `O=[N+]([O-])c1cc(Cl)ccc1S(=O)(=O)c1ccccc1`?
GI50 [1]: > 100 µM (inactive); GI50 [2]: > 100 µM (inactive); GI50 [3]: > 100 µM (inactive); GI50 [4]: > 100 µM (inactive); GI50 [5]: 60.7 µM (inactive); GI50 [6]: > 100 µM (inactive); GI50 [7]: 29.8 µM (inactive); GI50 [8]: 70 µM (inactive); GI50 [9]: > 100 µM (inactive); GI50 [10]: > 100 µM (inactive); GI50 [11]: > 100 µM (inactive); GI50 [12]: 35.5 µM (inactive); GI50 [13]: 27.6 µM; GI50 [14]: 38.9 µM (inactive); GI50 [15]: 39.7 µM (inactive); GI50 [16]: 82 µM (inactive); GI50 [17]: 74.6 µM (inactive); GI50 [18]: 26.7 µM (inactive); GI50 [19]: > 100 µM (inactive); GI50 [20]: 65.6 µM (inactive); GI50 [21]: > 100 µM (inactive); GI50 [22]: 27.6 µM (inactive); GI50 [23]: > 100 µM (inactive); GI50 [24]: > 100 µM (inactive); GI50 [25]: 51.3 µM (inactive); GI50 [26]: > 100 µM (inactive); GI50 [27]: > 100 µM (inactive); GI50 [28]: 52.8 µM (inactive); GI50 [29]: 67.6 µM (inactive); GI50 [30]: 54.1 µM (inactive); GI50 [31]: > 100 µM (inactive); GI50 [32]: 57.4 µM (inactive); GI50 [33]: > 100 µM (inactive); GI50 [34]: > 100 µM (inactive); GI50 [35]: 24.7 µM (inactive); GI50 [36]: > 100 µM (inactive); GI50 [37]: > 100 µM (inactive); GI50 [38]: > 100 µM (inactive); GI50 [39]: > 100 µM (inactive); GI50 [40]: 54.6 µM (inactive); GI50 [41]: 83.6 µM (inactive); GI50 [42]: > 100 µM (inactive); GI50 [43]: > 100 µM (inactive); GI50 [44]: > 100 µM (inactive); GI50 [45]: 17.3 µM (inactive); GI50 [46]: 49.2 µM (inactive); GI50 [47]: > 100 µM (inactive); GI50 [48]: > 100 µM (inactive); GI50 [49]: > 100 µM (inactive); GI50 [50]: 30.8 µM (inactive); GI50 [51]: > 100 µM (inactive); GI50 [52]: 66.7 µM (inactive); GI50 [53]: > 100 µM (inactive); GI50 [54]: > 100 µM (inactive); GI50 [55]: 34 µM (inactive); GI50 [56]: 53 µM (inactive); GI50 [57]: > 100 µM (inactive)

— ChEMBL document CHEMBL1201862, “PubChem BioAssay data set” (2004)
